# Source: US4880817A, “O-functionalized derivatives of substituted isoquinolin-3-ols having cardiotonic and/or phosphodiesterase fraction III inhibiting properties and/or renal vasodilating properties” (Ortho Pharmaceutical Corporation, priority 1987, dated 1989)
# Like-named read-outs stand apart in the source and are kept apart here.
# Test system: adult mongrel dogs
# Experiment: Renal vasodilating activity in anesthetized dogs
# Type: in vivo, mongrel dog
# Details: for change in vivo at 1.34 mg/kg / change in vivo at 6.2 mg/kg / change in vivo at 1.2 mg/kg: Canis lupus familiaris; for change in vivo at 1.34 mg/kg: dose 1.34 mpk
# Protocol: Goldberg et al., J. Pharmacol. Exp. Ther., 163, 188 (1968), performed an investigation of the structural requirements for dopamine-like renal vasodilation of phenethylamines and apomorphine. The following procedure is a variation of the assay described in that report.
# Adult mongrel dogs were anesthetized and surgically prepared for electromagnetic measurement of renal artery blood flow. A carotid artery was cannulated for measuring arterial blood pressure and drugs were administered intravenously or intraarterially (via the renal artery). Heart rate was monitored with a cardiotachometer. Renal vascular resistance was calculated as the ratio of mean arterial blood pressure to renal artery blood flow. Dopamine was infused intravenously at 3 μg/kg/min for ten minutes (at an infusion rate of about 1 ml/min) to determine responsiveness of each dog to renal dopamine receptor stimulation. Cumulative dose-response data were obtained by infusing a compound of this invention at progressively increasing (usually three-fold) infusion rates, each dose being infused for five minutes. The maximum percent change from pre-drug control in renal artery blood flow (or in renal vascular resistance) was determined for each infusion dose.
# RBF, RVR, MABP, and HR values are percent changes in renal blood flow, renal vascular resistance, mean arterial blood pressure, and heart rate, respectively, relative to control values.
# [1] = dose 6.2 mpk, relative to controls, read-out: HR: percent change in heart rate
# [2] = dose 6.2 mpk, relative to controls, read-out: MABP: percent change in mean arterial blood pressure
# [3] = dose 6.2 mpk, relative to controls, read-out: RBF: percent change in renal blood flow
# [4] = dose 6.2 mpk, relative to controls, read-out: RVR: percent change in renal vascular resistance
# [5] = read-out: HR: percent change in heart rate, dose 6.2 mpk, relative to controls
# [6] = read-out: MABP: percent change in mean arterial blood pressure, dose 6.2 mpk, relative to controls
# [7] = read-out: RBF: percent change in renal blood flow, dose 6.2 mpk, relative to controls
# [8] = read-out: RVR: percent change in renal vascular resistance, dose 6.2 mpk, relative to controls
# [9] = dose 1.2 mpk, relative to controls, read-out: HR: percent change in heart rate
# [10] = dose 1.2 mpk, relative to controls, read-out: MABP: percent change in mean arterial blood pressure
# [11] = dose 1.2 mpk, relative to controls, read-out: RBF: percent change in renal blood flow
# [12] = dose 1.2 mpk, relative to controls, read-out: RVR: percent change in renal vascular resistance
# [13] = dose 1.2 mpk, relative to controls, 1.2 mg/kg
# [14] = read-out: HR: percent change in heart rate, dose 1.2 mpk, relative to controls
# [15] = read-out: MABP: percent change in mean arterial blood pressure, dose 1.2 mpk, relative to controls
# [16] = read-out: RBF: percent change in renal blood flow, dose 1.2 mpk, relative to controls
# [17] = read-out: RVR: percent change in renal vascular resistance, dose 1.2 mpk, relative to controls
compound,measurement,setting,value
COc1cc2c(C)nc(OC(C)=O)c(Br)c2cc1OC [Cmpd 1],change in vivo at 1.34 mg/kg,"relative to controls, read-out: HR: percent change in heart rate",37%
same,change in vivo at 1.34 mg/kg,"relative to controls, read-out: MABP: percent change in mean arterial blood pressure",-21%
same,change in vivo at 1.34 mg/kg,"relative to controls, read-out: RBF: percent change in renal blood flow",22%
same,change in vivo at 1.34 mg/kg,"relative to controls, read-out: RVR: percent change in renal vascular resistance",35%
"COc1cc2c(C)nc(OC(C)=O)c([N+](=O)[O-])c2cc1OC [Cmpd 2, 3-Acetoxy-6,7-dimethoxy-1-methyl-4-nitroisoquinoline]",change in vivo at 6.2 mg/kg,[1],-2%
same,change in vivo at 6.2 mg/kg,[2],-8%
same,change in vivo at 6.2 mg/kg,[3],17%
same,change in vivo at 6.2 mg/kg,[4],-16%
CCOc1cc2c(C)nc(OC(=O)C(C)C)c([N+](=O)[O-])c2cc1OC [Cmpd 5],change in vivo at 6.2 mg/kg,[1],36%
same,change in vivo at 6.2 mg/kg,[2],-10%
same,change in vivo at 6.2 mg/kg,[3],42%
same,change in vivo at 6.2 mg/kg,[4],-36%
CCOc1cc2c(C)nc(OS(C)(=O)=O)c([N+](=O)[O-])c2cc1OC [Cmpd 6],change in vivo at 6.2 mg/kg,[1],-10%
same,change in vivo at 6.2 mg/kg,[2],-2%
same,change in vivo at 6.2 mg/kg,[3],38%
same,change in vivo at 6.2 mg/kg,[4],-28%
COc1cc2c(C)nc(OC(=O)c3ccc(Cl)cc3)c([N+](=O)[O-])c2cc1OC [Cmpd 15],change in vivo at 6.2 mg/kg,[1],3%
same,change in vivo at 6.2 mg/kg,[2],-1%
same,change in vivo at 6.2 mg/kg,[3],15%
same,change in vivo at 6.2 mg/kg,[4],-14%
COc1cc2c(C)nc(OS(C)(=O)=O)c([N+](=O)[O-])c2cc1OC [Cmpd 16],change in vivo at 6.2 mg/kg,[1],19%
same,change in vivo at 6.2 mg/kg,[2],-6%
same,change in vivo at 6.2 mg/kg,[3],12%
same,change in vivo at 6.2 mg/kg,[4],-16%
"COc1cc2c(C)nc(OC(C)=O)c(N(C(C)=O)C(C)=O)c2cc1OC [Cmpd 17, 4-N,N-Diacetamido-3-acetoxy-6,7-dimethoxy-1-methylisoquinoline]",change in vivo at 6.2 mg/kg,[1],-12%
same,change in vivo at 6.2 mg/kg,[2],13%
same,change in vivo at 6.2 mg/kg,[3],63%
same,change in vivo at 6.2 mg/kg,[4],-24%
CCOc1cc2c([N+](=O)[O-])c(OC(=O)N(C)C)nc(C)c2cc1OC [Cmpd 24],change in vivo at 6.2 mg/kg,[5],53%
same,change in vivo at 6.2 mg/kg,[6],-12%
same,change in vivo at 6.2 mg/kg,[7],22%
same,change in vivo at 6.2 mg/kg,[8],-28%
COc1ccc(NC(=O)Nc2c(OC(C)=O)nc(C)c3cc(OC)c(OC)cc23)cc1 [Cmpd 32],change in vivo at 1.2 mg/kg,[9],-23%
same,change in vivo at 1.2 mg/kg,[10],1%
same,change in vivo at 1.2 mg/kg,[11],6%
same,change in vivo at 1.2 mg/kg,[12],-4%
"CCCCNC(=O)Nc1c(OC(=O)N(CC)CC)nc(C)c2cc(OC)c(OC)cc12 [Cmpd 38, 4-[N'-(n-Butylureido)]-3-diethylcarbamyloxy-6,7-dimethoxy-1-methylisoquinoline]",change in vivo at 6.2 mg/kg,[5],-4%
same,change in vivo at 6.2 mg/kg,[6],5%
same,change in vivo at 6.2 mg/kg,[7],34%
same,change in vivo at 6.2 mg/kg,[8],-21%
C=CCNC(=O)Nc1c(OC(=O)N(C)C)nc(C)c2cc(OC)c(OC)cc12 [Cmpd 40],MABP: percent change in mean arterial blood pressure,[13],-1 percent change
same,RBF: percent change in renal blood flow,[13],+9 percent change
same,RVR: percent change in renal vascular resistance,[13],-9 percent change
CCCCNC(=O)Nc1c(OC(=O)N(CC)CC)nc(C)c2cc(OCC)c(OC)cc12 [Cmpd 45],change in vivo at 1.2 mg/kg,[14],11%
same,change in vivo at 1.2 mg/kg,[15],12%
same,change in vivo at 1.2 mg/kg,[16],15%
same,change in vivo at 1.2 mg/kg,[17],-2%
"CCN(CC)C(=O)Oc1nc(C)c2cc(OC)c(OC)cc2c1NC(N)=O [Cmpd 47, 3-Diethylcarbamyloxy-6,7-dimethoxy-1-methyl-4-ureidoisoquinoline]",change in vivo at 1.2 mg/kg,[14],-3%
same,change in vivo at 1.2 mg/kg,[15],11%
same,change in vivo at 1.2 mg/kg,[16],17%
same,change in vivo at 1.2 mg/kg,[17],-4%
C=CCNC(=O)N(C(=O)NCC=C)c1c(OC(=O)N(CC)CC)nc(C)c2cc(OC)c(OC)cc12 [Cmpd 49],change in vivo at 1.2 mg/kg,[9],-6%
same,change in vivo at 1.2 mg/kg,[10],2%
same,change in vivo at 1.2 mg/kg,[11],14%
same,change in vivo at 1.2 mg/kg,[12],-8%
C=CCNC(=O)Nc1c(OC(=O)N(CC)CC)nc(C)c2cc(OC)c(OC)cc12 [Cmpd 50],change in vivo at 1.2 mg/kg,[14],-2%
same,change in vivo at 1.2 mg/kg,[15],0%
same,change in vivo at 1.2 mg/kg,[16],20%
same,change in vivo at 1.2 mg/kg,[17],-16%
